Data: publication PMC8305651 (International Journal of Molecular Sciences, 2021)

Biological target: wild-type PA-Nter (Influenza A virus, UniProt C3W5S0, DEL51-57/DEL61-72/E59G)
Format: biochemical, influenza A/California/07/2009 (H1N1)

O=c1cc(-c2ccc(O)c(O)c2)oc2c([C@@H]3O[C@H](CO)[C@@H](O)[C@H](O)[C@H]3O)c(O)cc(O)c12 [orientin]
inhibition of endonuclease activity, gel-based assay (qualitative): higher inhibitory potency than luteolin
